Assay results as given in patent US20250161307A1, “PYRAZOLOPYRIMIDINES AS MODULATORS OF SPERMINE OXIDASE” (Janssen Pharmaceutica NV, priority 2022, published 2025).
pIC50: −log10 of the molar value.

What was measured:
SMOX [1] = biological target: T1, SMOX (Homo sapiens (Human), UniProt Q9NWM0); experiment: Human SMOX assay (HyPerBlu chemiluminescent detection of hydrogen peroxide); type: biochemical; conditions: 2.5 nM full length hSMOX, spermine substrate, 1 h at room temperature, luminescence read; read-out: SMOx_IC50
T1 sequence (Q9NWM0 whole entry): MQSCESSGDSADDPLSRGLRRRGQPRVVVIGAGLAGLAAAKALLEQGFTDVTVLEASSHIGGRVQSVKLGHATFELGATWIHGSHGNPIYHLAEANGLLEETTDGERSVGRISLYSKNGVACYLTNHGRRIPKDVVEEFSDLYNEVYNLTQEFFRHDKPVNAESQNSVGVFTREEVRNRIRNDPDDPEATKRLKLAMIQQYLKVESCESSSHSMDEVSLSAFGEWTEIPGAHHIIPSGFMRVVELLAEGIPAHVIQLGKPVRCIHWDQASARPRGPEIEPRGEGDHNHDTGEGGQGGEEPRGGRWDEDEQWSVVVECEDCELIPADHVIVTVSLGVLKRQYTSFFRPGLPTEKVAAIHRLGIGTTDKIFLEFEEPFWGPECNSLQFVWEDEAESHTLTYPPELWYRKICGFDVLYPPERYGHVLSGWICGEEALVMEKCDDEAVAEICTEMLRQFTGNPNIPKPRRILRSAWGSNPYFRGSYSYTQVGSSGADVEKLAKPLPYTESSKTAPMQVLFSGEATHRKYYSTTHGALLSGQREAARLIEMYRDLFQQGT
How it was run: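 Full-length N-His human SMOX (2.5 nM, E. coli-expressed) was incubated 1 h at room temperature with 30 µM spermine, 11-point compound dilutions and 1.25% DMSO in pH 7.4 HEPES/NaCl/EGTA buffer. H2O2 was detected by HyPerBlu chemiluminescence after 30 min, and IC50 came from dose–response fits.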

SMOX [2] = biological target: T1, SMOX; experiment: Cellular Thermal Shift Assay (CETSA) with alphaLISA detection of intact SMOX in A549 cells; type: cell-based; conditions: 1 hour compound incubation at 37° C., heated to 55° C. for 5 minutes
Description: The Cellular Thermal Shift Assay (CETSA) is a biophysical assay based on the principle of ligand-induced thermal stabilization of target proteins, meaning that a protein denaturing temperature will change upon ligand interaction. Thus, by heating samples (i.e. cells, ex vivo samples) to different temperatures, and quantifying conformationally intact proteins we can detect compound-protein interactions after compound treatment. CETSA allows direct monitoring of ligand binding to a specific target (target engagement). In our study, we have developed a suitable detection system that will detect intact SMOX using the alphaLISA. […] The detection of compound -SMOX ligand binding is performed using A549 cells. This adenocarcinoma human alveolar basal epithelial cell line expresses high levels of SMOX. Their use has been widely reported in the literature with respect to the investigation of the SMOX pathway. Using SMOX high-expressing cells with CETSA and alphaLISA systems provides the optimal platform for screening small molecules for SMOX inhibition.
A549 cells were seeded at a density of 0.05-0.1×10^6 cells/mL in T175 flasks and cultured in 25 mL of culture medium consisting in RPMI 1640 medium (Gibco) supplemented with 10% fetal bovine serum (Gibco). Cells were passaged twice per week and used for CETSA assays before reaching confluency. One day prior to the CETSA cells were seeded in 384-well white assay plates (Corning) at 15000 cells per well. Briefly, cells were washed with PBS (Life Technologies Europe BV) and dissociated by adding 2 mL TrypLE™ Select (Life Technologies Europe BV). After 5 min at 37° C., cells were resuspended in culture medium, counted using a ViCell XR cell counter (ViCell) and seeded in the 384-well plates.
Compounds were pre-diluted in PBS to a final concentration of […] and 1% DMSO and serially diluted in PBS 1% DMSO. For compound-cell incubation, medium in the 384 well plates was replaced with 30 μL of serially diluted compounds. After incubation at 37° C. for 1 hour the liquid was removed and plates were heated to 55° C. for 5 minutes and then transferred to ice for 5 minutes. After the cooling step, cells were lysed by adding 15 μL 1× alphaLISA-buffer (Perkin Elmer) containing anti-SMOX monoclonal antibody #2 and anti-SMOX Fab-fragment #33 mixture at a concentration of 5 and 0.5 nM respectively. After one hour at RT, 5 μL anti-6×His alphaLISA acceptor beads (50 mg/L, AL128C, Perkin Elmer) were added to the wells followed by an additional incubation of one hour at RT. Then 5 μL anti-rabbit IgG alpha donor beads (200 mg/L was added to the wells. After one hour incubation at RT the alpha signal was read using an alpha compatible reader. MDL75257 (M2949, Sigma) was used as positive control for compound-SMOX interaction. Compound-SMOX interaction is detected through the comparison of the high alpha signal of the negative control with the much lower signal of the wells that contain SMOX binding compounds.

hPAOX = hPAOX (Homo sapiens (Human), UniProt Q6QHF9); experiment: Human PAOX assay (HyPerBlu chemiluminescent detection of hydrogen peroxide); type: biochemical; conditions: 60 pM recombinant PAOX, 20 μM N-acetylspermine substrate
Sequence of hPAOX (Q6QHF9 whole entry): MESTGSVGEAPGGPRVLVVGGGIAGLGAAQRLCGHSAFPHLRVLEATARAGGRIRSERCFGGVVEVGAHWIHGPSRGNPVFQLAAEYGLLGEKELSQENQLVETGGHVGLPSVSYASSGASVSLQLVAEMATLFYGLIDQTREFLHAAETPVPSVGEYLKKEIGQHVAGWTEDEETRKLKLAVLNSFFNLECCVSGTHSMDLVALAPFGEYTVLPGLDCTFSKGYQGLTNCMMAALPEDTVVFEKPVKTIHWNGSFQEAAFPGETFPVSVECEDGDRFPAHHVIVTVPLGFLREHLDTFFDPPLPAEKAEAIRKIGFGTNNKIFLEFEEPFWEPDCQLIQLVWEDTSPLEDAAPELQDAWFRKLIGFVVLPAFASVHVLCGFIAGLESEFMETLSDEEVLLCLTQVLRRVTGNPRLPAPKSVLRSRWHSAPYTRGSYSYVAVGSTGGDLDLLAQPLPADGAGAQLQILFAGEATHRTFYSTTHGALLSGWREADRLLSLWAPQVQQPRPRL
How it was run: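 His-tagged recombinant PAOX expressed in sf9 insect cells was used at 60 pM, with 20 μM N-acetylspermine as substrate. Hydrogen peroxide formed by the reaction was detected by chemiluminescence from a boronate probe (HyPerBlu). Inhibition appears as lower luminescence.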

[3] = animal cancer models; cited from earlier work
[4] = associated disease models; cited from earlier work

pIC50 (SMOX [1]) | SMOx % recovery CETSA (SMOX [2]) [%] | pIC50 (hPAOX) | Compound | cancer incidence [3] | neuronal death and retinal degeneration [4]
6.91 | 0 | 6.91 | Cc1cccc(-c2cc(-c3ccccc3)nc3cc(C(=O)NCCCn4ccnc4)nn23)c1 [Example 81, N-(3-(1H-imidazol-1-yl)propyl)-5-phenyl-7-(m-tolyl)pyrazolo[1,5-a]pyrimidine-2-carboxamide] |  | 
7.62 | 40 | 5.66 | O=C(NCCCn1ccnc1)c1cc2nc(-c3ccccc3)cc(-c3ccc(F)cc3)n2n1 [Example 86, N-(3-(1H-imidazol-1-yl)propyl)-7-(4-fluorophenyl)-5-phenylpyrazolo[1,5-a]pyrimidine-2-carboxamide] |  | 
6.99 | 0 | 5.81 | O=C(NCCCn1ccnc1)c1cc2nc(-c3ccccc3)cc(-c3ccc(O)cc3)n2n1 [Example 88, N-(3-(1H-imidazol-1-yl)propyl)-7-(4-hydroxyphenyl)-5-phenylpyrazolo[1,5-a]pyrimidine-2-carboxamide] |  | 
6.80 | 0 | 6.06 | N#Cc1cccc(-c2cc(-c3ccccc3)nc3cc(C(=O)NCCCn4ccnc4)nn23)c1 [Example 89, N-(3-(1H-imidazol-1-yl)propyl)-7-(3-cyanophenyl)-5-phenylpyrazolo[1,5-a]pyrimidine-2-carboxamide] |  | 
7.11 | 3 | 5.79 | N#Cc1ccc(-c2cc(-c3ccccc3)nc3cc(C(=O)NCCCn4ccnc4)nn23)cc1 [Example 90, N-(3-(1H-imidazol-1-yl)propyl)-7-(4-cyanophenyl)-5-phenylpyrazolo[1,5-a]pyrimidine-2-carboxamide] |  | 
7.37 | 111 | 5.69 | O=C(NCCCn1ccnc1)c1cc2nc(-c3ccccc3)cc(-c3ccccn3)n2n1 [Example 91, N-(3-(1H-imidazol-1-yl)propyl)-5-phenyl-7-(pyridin-2-yl)pyrazolo[1,5-a]pyrimidine-2-carboxamide] |  | 
6.62 | 20 | 6.28 | CN1CC(NC(=O)c2cc3nc(-c4ccccc4)cc(-c4ccccn4)n3n2)C1 [Example 92, N-(1-methylazetidin-3-yl)-5-phenyl-7-(pyridin-2-yl)pyrazolo[1,5-a]pyrimidine-2-carboxamide] |  | 
7.66 | 24 | 5.90 | O=C(NCCCn1ccnc1)c1cc2nc(-c3ccccc3)cc(C3CCCCC3)n2n1 [Example 107, N-(3-(1H-imidazol-1-yl)propyl)-7-cyclohexyl-5-phenylpyrazolo[1,5-a]pyrimidine-2-carboxamide] |  | 
7.24 | 52 | 5.53 | O=C(NCCCn1ccnc1)c1cc2nc(-c3ccccc3)cc(C3CCCCO3)n2n1 (centres unmarked) [Example 111, N-(3-(1H-imidazol-1-yl)propyl)-5-phenyl-7-(tetrahydro-2H-pyran-2-yl)pyrazolo[1,5-a]pyrimidine-2-carboxamide] |  | 
 |  |  | C=C=CCNCCCCNCC=C=C.Cl.Cl [MDL 72527, N^1,N^4-di-2,3-butadienyl-1,4-butanediamine dihydrochloride] | significantly reduced cancer incidence | reduced neuronal death and retinal degeneration
